Source: ChEMBL document CHEMBL3885881, “DrugMatrix”

Species on record: Rattus norvegicus
Assay: DrugMatrix - Regimen: Daily Repeat
Assay type: toxicity, organism-based, Sprague-Dawley
Design: regimen Daily Repeat, gender Male, age 6-8 weeks
Details: in vivo, po, route oral GAVAGE, vehicle 100 % SALINE; for ABSOLUTE BASOPHIL / ABSOLUTE EOSINOPHIL / ABSOLUTE LYMPHOCYTE / ABSOLUTE MONOCYTE / ABSOLUTE SEGMENTED NEUTROPHIL / BASOPHIL / EOSINOPHIL / ERYTHROCYTE COUNT / HEMATOCRIT / HEMOGLOBIN / LEUKOCYTE COUNT / MEAN CORPUSCULAR HEMOGLOBIN / MEAN CORPUSCULAR HEMOGLOBIN CONCENTRATION / MEAN CORPUSCULAR VOLUME / MONOCYTE / NEUTROPHIL / NUCLEATED RED BLOOD CELLS / PLATELET COUNT: tissue Blood; for ALANINE AMINOTRANSFERASE / ALBUMIN / ALKALINE PHOSPHATASE / ASPARTATE AMINOTRANSFERASE / BLOOD UREA NITROGEN / CARBON DIOXIDE / CHLORIDE / CHOLESTEROL / CREATINE PHOSPHOKINASE / CREATININE / GLUCOSE / LACTATE DEHYDROGENASE / LIPASE / PHOSPHORUS / POTASSIUM / SODIUM / TOTAL BILIRUBIN / TOTAL PROTEIN / URIC ACID: tissue Plasma
[1] = 0 mg/kg, 72 h, dose level Control, time 3 day
[2] = 0 mg/kg, 120 h, dose level Control, time 5 day
[3] = 40 mg/kg, 72 h, dose level Low, time 3 day

Oc1ccccc1O [CATECHOL]
ABSOLUTE BASOPHIL [1]: 0 CELLS/uL | ABSOLUTE EOSINOPHIL [1]: 65.67 CELLS/uL | ABSOLUTE LYMPHOCYTE [1]: 17283.5 CELLS/uL | ABSOLUTE MONOCYTE [1]: 0 CELLS/uL | ABSOLUTE SEGMENTED NEUTROPHIL [1]: 1284.17 CELLS/uL | BASOPHIL [1]: 0% | EOSINOPHIL [1]: 0.33% | ERYTHROCYTE COUNT [1]: 5.46 x10E6/uL | HEMATOCRIT [1]: 34.28% | HEMOGLOBIN [1]: 13.78 G/DL | LEUKOCYTE COUNT [1]: 18.63 x10E3/uL | MEAN CORPUSCULAR HEMOGLOBIN [1]: 25.3 pg | MEAN CORPUSCULAR HEMOGLOBIN CONCENTRATION [1]: 40.22 G/DL | MEAN CORPUSCULAR VOLUME [1]: 62.87 fL | MONOCYTE [1]: 0% | NEUTROPHIL [1]: 7% | NUCLEATED RED BLOOD CELLS [1]: 0 /100WBC | PLATELET COUNT [1]: 1244.83 x10E3/uL | ALANINE AMINOTRANSFERASE [1]: 52.83 u/L | ALBUMIN [1]: 4 G/DL | ALKALINE PHOSPHATASE [1]: 327.67 u/L | ASPARTATE AMINOTRANSFERASE [1]: 78.83 u/L | BLOOD UREA NITROGEN [1]: 13.83 mg/dL | CARBON DIOXIDE [1]: 26.67 mmol/L | CHLORIDE [1]: 99.67 MEQ/L | CHOLESTEROL [1]: 69 mg/dL | CREATINE PHOSPHOKINASE [1]: 350.17 u/L | CREATININE [1]: 0.21 mg/dL | GLUCOSE [1]: 173.83 mg/dL | LACTATE DEHYDROGENASE [1]: 168.33 u/L | LIPASE [1]: 11 u/L | PHOSPHORUS [1]: 12.7 mg/dL | POTASSIUM [1]: 6.88 MEQ/L | SODIUM [1]: 141.68 MEQ/L | TOTAL BILIRUBIN [1]: 0.22 mg/dL | TOTAL PROTEIN [1]: 6.02 G/DL | URIC ACID [1]: 1.9 mg/dL | ABSOLUTE BASOPHIL [2]: 0 CELLS/uL | ABSOLUTE EOSINOPHIL [2]: 14.83 CELLS/uL | ABSOLUTE LYMPHOCYTE [2]: 12880 CELLS/uL | ABSOLUTE MONOCYTE [2]: 90.67 CELLS/uL | ABSOLUTE SEGMENTED NEUTROPHIL [2]: 864.5 CELLS/uL | BASOPHIL [2]: 0% | EOSINOPHIL [2]: 0.17% | ERYTHROCYTE COUNT [2]: 5.83 x10E6/uL | HEMATOCRIT [2]: 35.87% | HEMOGLOBIN [2]: 14 G/DL | LEUKOCYTE COUNT [2]: 13.85 x10E3/uL | MEAN CORPUSCULAR HEMOGLOBIN [2]: 24.03 pg | MEAN CORPUSCULAR HEMOGLOBIN CONCENTRATION [2]: 39.03 G/DL | MEAN CORPUSCULAR VOLUME [2]: 61.53 fL | MONOCYTE [2]: 0.67% | NEUTROPHIL [2]: 6.67% | NUCLEATED RED BLOOD CELLS [2]: 0 /100WBC | PLATELET COUNT [2]: 1041.83 x10E3/uL | ALANINE AMINOTRANSFERASE [2]: 56 u/L | ALBUMIN [2]: 4.47 G/DL | ALKALINE PHOSPHATASE [2]: 319 u/L | ASPARTATE AMINOTRANSFERASE [2]: 89.17 u/L | BLOOD UREA NITROGEN [2]: 15.2 mg/dL | CARBON DIOXIDE [2]: 24 mmol/L | CHLORIDE [2]: 104.4 MEQ/L | CHOLESTEROL [2]: 69.5 mg/dL | CREATINE PHOSPHOKINASE [2]: 295.83 u/L | CREATININE [2]: 0.21 mg/dL | GLUCOSE [2]: 124.33 mg/dL | LACTATE DEHYDROGENASE [2]: 325.5 u/L | LIPASE [2]: 14.67 u/L | PHOSPHORUS [2]: 11.45 mg/dL | POTASSIUM [2]: 6.74 MEQ/L | SODIUM [2]: 151.4 MEQ/L | TOTAL BILIRUBIN [2]: 0.23 mg/dL | TOTAL PROTEIN [2]: 6.45 G/DL | URIC ACID [2]: 1.18 mg/dL | ABSOLUTE BASOPHIL [3]: 0 CELLS/uL | ABSOLUTE EOSINOPHIL [3]: 0 CELLS/uL | ABSOLUTE LYMPHOCYTE [3]: 14994 CELLS/uL | ABSOLUTE MONOCYTE [3]: 0 CELLS/uL | ABSOLUTE SEGMENTED NEUTROPHIL [3]: 739.33 CELLS/uL | BASOPHIL [3]: 0% | EOSINOPHIL [3]: 0% | ERYTHROCYTE COUNT [3]: 5.48 x10E6/uL | HEMATOCRIT [3]: 33.5% | HEMOGLOBIN [3]: 13.33 G/DL | LEUKOCYTE COUNT [3]: 15.73 x10E3/uL | MEAN CORPUSCULAR HEMOGLOBIN [3]: 24.37 pg | MEAN CORPUSCULAR HEMOGLOBIN CONCENTRATION [3]: 39.87 G/DL | MEAN CORPUSCULAR VOLUME [3]: 61.1 fL | MONOCYTE [3]: 0% | NEUTROPHIL [3]: 4.67% | NUCLEATED RED BLOOD CELLS [3]: 0 /100WBC | PLATELET COUNT [3]: 1095.33 x10E3/uL | ALANINE AMINOTRANSFERASE [3]: 43.67 u/L | ALBUMIN [3]: 4.2 G/DL | ALKALINE PHOSPHATASE [3]: 287 u/L | ASPARTATE AMINOTRANSFERASE [3]: 70.67 u/L | BLOOD UREA NITROGEN [3]: 13.33 mg/dL | CARBON DIOXIDE [3]: 23.67 mmol/L | CHLORIDE [3]: 101 MEQ/L | CHOLESTEROL [3]: 74 mg/dL | CREATINE PHOSPHOKINASE [3]: 350.33 u/L | CREATININE [3]: 0.22 mg/dL | GLUCOSE [3]: 176.67 mg/dL | LACTATE DEHYDROGENASE [3]: 113.33 u/L | LIPASE [3]: 10.33 u/L | PHOSPHORUS [3]: 11.93 mg/dL | POTASSIUM [3]: 6.1 MEQ/L | SODIUM [3]: 140.57 MEQ/L | TOTAL BILIRUBIN [3]: 0.17 mg/dL | TOTAL PROTEIN [3]: 6.13 G/DL | URIC ACID [3]: 2 mg/dL
